Four molecules from patent US20240398973A1, “ENGINEERED ANTIBODY COMPOUNDS AND CONJUGATES THEREOF” (Eli Lilly and Company, priority 2017, published 2024) can be followed below.

Experiment [1] relates to primary human polymorphonuclear neutrophil (PMN). Kind of experiment: PMN chemotaxis (transwell, modified Boyden chamber). The conditions noted are these: relative to 100 nM fMLF, raw migration values (Table 4b). Format: cell-based. As to the method:
Chemotaxis is measured by observing primary human polymorphonuclear neutrophil (PMN) migration across transwell membranes (Corning #3415) towards antibody conjugates in a modified Boyden chamber assay. Approximately 2-4×10^5 cells from neutrophil-enriched preparations are seeded in upper transwell chambers on membranes with 3.0 um pores. The lower transwell chambers contain solutions of buffer alone and fMLF (N-formyl-Met-Leu-Phe peptide as positive control) and experimental antibody bioconjugates. […] Cell numbers are determined using standard curves. All data are transformed to percent relative to the maximal fMLF response for each individual experiment.

Experiment [2] concerns Mouse neutrophils purified from marrow. Kind of experiment: Mouse PMN ROS production. Format: cell-based. The note with it: relative to 10000 nM fMLF, AUC 5 minutes (Table 8c).
Experimental: Mouse neutrophils purified from marrow were exposed to formyl peptides or antibody conjugates and ROS production was measured using luminol amplified chemiluminescence essentially as described above.
For a further experiment, the system named is human primary PMNs. Kind of experiment: PMN reactive oxygen species (ROS) production, luminol-amplified chemiluminescence. Format: cell-based.
The target in experiment [3] is formyl peptide receptor 1 (FPR1) on primary human polymorphonuclear neutrophils (human) (UniProt P21462). Briefly: cell-based or functional assay.
Experiment [4] shares this target. Kind of experiment: cell-based or functional assay. The source holds these as a separate data set.
Experiment [5] concerns Daudi B lymphoblast cells. Briefly: PMN-mediated killing of DAUDI tumor cells (xCelligence). Format: cell-based, human. The note with it: 6 hours, mean ± SD, n=4, normalized to Buffer control. The procedure: Antibody-targeted killing of tumor cells by PMNs is measured using the xCelligence Real Time Cell Analysis system (ACEA Biosciences). This system monitors cell viability in real time by recording electrical impedance between sensors on the growth surface of culture plates. It reports a normalized cell index (NCI) that is normalized to control cells in parallel wells and allows one to control for relative culture viability. NCIs are measured continuously at 15 minute intervals for 24 hours following incubation of tumor cultures with targeted antibodies and addition of human primary PMNs at a 10:1 PMN to tumor cell ratio. Prior to seeding with tumor cells, xCelligence 96-well E-Plates are calibrated for background signal. Each well receives 50 μl of culture medium (RPMI+10% FBS+antibiotics) and the E-plate is equilibrated to 37° C. in a humidified incubator containing the xCelligence plate reader.
After equilibration, E-Plate well variations in background are measured. Cultured tumor cell lines are dissociated, counted and diluted to a final density of 1×10^5 cells/ml in culture medium and 100 μl of diluted tumor cells were plated into E-Plate wells. The E-Plate is returned to the xCelligence reader and cell indices are measured in 15 minute intervals overnight to establish baseline.
The next day, PMNs are isolated from fresh human blood samples and brought to a final density of 2×10^6 cells/ml in culture medium. Following overnight recording, the E-Plate is removed from the xCelligence reader and 22 μl of 10× antibody solution or buffer is added to designated wells. After 15 minutes, 50 μl of diluted PMNs (1×10^5 total cells) or buffer was added to designated wells. Immediately after PMN addition, the E-Plate is returned to the xCelligence reader and cell indices were measured for up to 72 hours. After completion of the experiment, cell indices are normalized (NCI) to the time point immediately preceding the addition of antibodies.
Percent NCI is defined as ((NCI of sample)/(NCI of Tumor Cells Alone)×100). For non-adherent tumor cells (Daudi cells), the xCelligence Immunotherapy Kit-B Cell Killing Assay (ACEA #8100004) is used to tether the tumor cells to E-Plate wells according to manufacturer protocols. Following tethering and background acquisition, the protocols are performed as indicated above.
Non-adherent, CD20+ Daudi B lymphoblast cells are immobilized with xCelligence Immunotherapy Kit (ACEA #8100004) to tether the tumor cells to E-Plate wells according to manufacturer protocols, and are exposed to conditions shown below in Table 16. Percent NCI values represent relative viability of DAUDI cells following 6 hours of exposure to the stated conditions. Values are given as mean percentage normalized to “Buffer control” ±SD; n=4 for all conditions. Statistical significance was determined by one-way ANOVA followed by post-hoc Dunnett's multiple comparisons test vs “+PMN”.

“And” between values parts separate entries of the source, which are not always exact repeats. Equal entries are not always repeated. Where two headings read alike, the source gives them in different places. Where no end group is shown, it is not given here. The star is where a group is joined. hydrolyzed maleimide‑PEG linker = hydrolyzed maleimide-polyethylene glycol (PEG) linker, bound to the Lys side chain through an epsilon amide bond; For = O=C*

Experimental for human primary PMNs: Production of ROS by human primary PMNs is measured using luminol-amplified chemiluminescence. Following isolation, PMNs are suspended at 1×10^6 cells/ml in HBSS containing calcium and magnesium (Gibco #14025-092) supplemented with 0.25% human serum albumin (Gemini Bio producst #800-124) and 50 uM Luminol (SigmaAldrich #123072-2.5G). 100 μl of cell suspension (1×10^5 total cells) is then distributed into each well of a 96-well plate suitable for fluorescence measurement (Greiner #655098) and temperature equilibrated to 37° C. for 5 minutes. Following equilibration, 10× solution of antibody conjugate is applied to the wells, achieving a 1× final concentration.
Immediately after the addition of antibody conjugate, chemiluminescence signal is recorded in a luminometer maintained at 37° C. with 0.01 seconds dwell time per well, 20 seconds total time between sequential plate readings and 45 minutes total run time (PerkinElmer EnVision Multilabel Plate Reader).

The term EC50 denotes the midpoint of the concentration-response curve. Regarding “FRM-021: SEQ ID NO: 36; formyl-Met-Ile-Phe-Leu-Lys, lysine side chain epsilon amide to a hydrolyzed maleimide-PEG linker (For-MIFLK(hydrolyzed maleimide‑PEG linker))”, the “PMN Chemotaxis Towards Formyl Peptides” value in experiment [1] (1 nM) amounted to 151.7%; in experiment [1] (3 nM), 142.2%; in experiment [1] (10 nM), 137.4%; in experiment [1] (30 nM), 52.9%; in experiment [1] (100 nM) it was 37.0%; in experiment [1] (300 nM), 35.6%. For the same molecule, the “PMN Chemotaxis Towards Formyl Peptides” value in experiment [1] (1000 nM) worked out at 22.8%. In addition, the “Mouse PMN ROS Production” value is on record as 14.5 percentage in experiment [2] (10 nM); 17.3 percentage in experiment [2] (30 nM); 112.6 percentage in experiment [2] (100 nM); 150.3 percentage in experiment [2] (300 nM); 180.2 percentage in experiment [2] (1000 nM); 194.4 percentage in experiment [2] (3000 nM). Also, the “Mouse PMN ROS Production” value in experiment [2] (10000 nM) was determined as 186.9 percentage. The “PMN ROS production” value is 8.4 percentage with human primary PMNs (10 nM, relative to 3000 nM fMLF, AUC 5 minutes (Table 8b)); 34.4 percentage in the experiment with human primary PMNs (30 nM, relative to 3000 nM fMLF, AUC 5 minutes (Table 8b)); 69.2 percentage with human primary PMNs (100 nM, relative to 3000 nM fMLF, AUC 5 minutes (Table 8b)); 84.4 percentage in the experiment on human primary PMNs (300 nM, relative to 3000 nM fMLF, AUC 5 minutes (Table 8b)); 91.2 percentage in the experiment on human primary PMNs (1000 nM, relative to 3000 nM fMLF, AUC 5 minutes (Table 8b)); 102.9 percentage in the experiment on human primary PMNs (3000 nM, relative to 3000 nM fMLF, AUC 5 minutes (Table 8b)). In addition, the “PMN ROS production” value in the experiment with human primary PMNs (10000 nM, relative to 3000 nM fMLF, AUC 5 minutes (Table 8b)) is 91.7 percentage. Further, the response with human primary PMNs (Best-Fit values in Graphpad PRISM (Table 8b)) was half-maximal at 51.2 nM (EC50).
For TMab-G1-fMLFK-HC-124C-378C (antibody), the EC50 of PMN ROS production in experiment [3] was found to be 164 nM.
As for fMLF (N-formyl-Met-Leu-Phe peptide), the EC50 of PMN ROS production in experiment [3] turned out to be 334 nM; in experiment [4] it was 154 nM.

B1: AME133-G1(IQ)-UC-HC-124C-378C: unconjugated AME133 (anti-CD20) IgG1(IQ) with HC 124C and 378C; HC SEQ ID NO:8, LC SEQ ID NO:9 (antibody)
heavy: EVQLVQSGAEVKKPGESLKISCKGSGRTFTSYNMHWVRQMPGKGLEWMGAIYPLTGDTSYNQKSKLQVTISADKSISTAYLQWSSLKASDTAMYYCARSTYVGGDWQFDVWGKGTTVTVSSASTKGPCVFPLAPSSKSTSGGTAALGCLVKDYFPEPVTVSWNSGALTSGVHTFPAVLQSSGLYSLSSVVTVPSSSLGTQTYICNVNHKPSNTKVDKKVEPKSCDKTHTCPPCPAPELLGGPSVFLFPPKIKDTLMISRTPEVTCVVVDVSHEDPEVKFNWYVDGVEVHNAKTKPREEQYNSTYRVVSVLTVLHQDWLNGKEYKCKVSNKALPAPIEKTISKQKGQPREPQVYTLPPSRDELTKNQVSLTCLVKGFYPSDICVEWESNGQPENNYKTTPPVLDSDGSFFLYSKLTVDKSRWQQGNVFSCSVMHEALHNHYTQKSLSLSPG
light: EIVLTQSPGTLSLSPGERATLSCRASSSVPYIHWYQQKPGQAPRLLIYATSALASGIPDRFSGSGSGTDFTLTISRLEPEDFAVYYCQQWLSNPPTFGQGTKLEIKRTVAAPSVFIFPPSDEQLKSGTASVVCLLNNFYPREAKVQWKVDNALQSGNSQESVTEQDSKDSTYSLSSTLTLSKADYEKHKVYACEVTHQGLSSPVTKSFNRGEC
modifications: SITE 128 THIOETH - position 128 is cysteine residue modified by thioether bond formation to maleimide-polyethylene glycol (PEG) linker; SITE 382 THIOETH - position 382 is cysteine residue modified by thioether bond formation to maleimide-polyethylene glycol (PEG) linker
Consider B1, for which the “Percent NCI” value is 58.7 ± 13.2% in experiment [5] (10 nM + PMN); 97.7 ± 1.4% in experiment [5] (10 nM without PMN); 93.4 ± 22.4% in experiment [5] (30 nM + PMN); 97.3±1.2% and 97.3 ± 0.6% in experiment [5] (30 nM without PMN, listed as AME133-G1(IQ)-UC-124C-378C); 114 ± 6.9% in experiment [5] (100 nM + PMN); 90.9 ± 0.6% in experiment [5] (100 nM without PMN). The “Percent NCI” value in experiment [5] (300 nM + PMN) was 113.2 ± 7.2%; in experiment [5] (300 nM without PMN), 87.7 ± 1.5%. Also, the “PMN ROS production” value with human primary PMNs (1 nM, relative to 1000 nM fMLF, AUC 5 minutes (Tables 9, 11)) was 10.3 percentage; in the experiment with human primary PMNs (3 nM, relative to 1000 nM fMLF, AUC 5 minutes (Tables 9, 11)), 10.6 percentage; in the experiment with human primary PMNs (10 nM, relative to 1000 nM fMLF, AUC 5 minutes (Tables 9, 11)), 10.6 percentage; in the experiment with human primary PMNs (30 nM, relative to 1000 nM fMLF, AUC 5 minutes (Tables 9, 11)), 10.5 percentage; in the experiment with human primary PMNs (100 nM, relative to 1000 nM fMLF, AUC 5 minutes (Tables 9, 11)), 10.3 percentage; in the experiment with human primary PMNs (300 nM, relative to 1000 nM fMLF, AUC 5 minutes (Tables 9, 11)) it was 11.4 percentage. For the same molecule, in the experiment with human primary PMNs (1000 nM, relative to 1000 nM fMLF, AUC 5 minutes (Tables 9, 11)), the “PMN ROS production” value amounted to 13.9 percentage. For the same molecule, the “PMN ROS production, Exposure: Buffer” value with human primary PMNs (300 nM, Buffer, relative to fMLF, AUC 5 minutes (Table 12a)) worked out at 25.3 percentage. The “PMN ROS production, Exposure: Cyclosporin H” value in the experiment with human primary PMNs (300 nM, PMNs pre-incubated with 1 uM Cyclosporin H for 30 minutes, relative to fMLF (Table 12a)) amounted to 19.7 percentage.
